Consider three compounds from PMC4301837, “Aldosterone synthase inhibition: cardiorenal protection in animal disease models and translation of hormonal effects to human subjects” (Journal of Translational Medicine, 2014).

Series [1] deals with ACTH-stimulated aldosterone and corticosterone synthesis. Also noted: method as in PMID 20354176. The following applies: in vivo rat ACTH stimulation model; previous study; cited from earlier work.
A further series relates to human CYP11B2. On the set-up: method as in PMID 24899257. The following applies: cited from earlier work.
The subject of series [2] is Ang II-stimulated aldosterone release. On the set-up: method as in D. Rigel, personal communication. As to conditions: dogs; ref D. Rigel, personal communication; read-out: EC50, inhibition of Ang II-stimulated aldosterone release; cited from earlier work.
The conditions of series [3]: dogs, ref D. Rigel, personal communication, cited from earlier work.
Series [4] relates to dTG rats with pre-established cardiorenal disease. Nature of the series: Survival study in older, enalapril-pre-treated dTG rats with established cardiorenal disease. It is filed as in vivo, rat. As to conditions: male dTG rats, 10 mg/kg/day (40 mg/L in drinking water) from 3 to 8 weeks of age.
For series [5], the system named is dTG rats overexpressing human renin and angiotensinogen. It is filed as in vivo.
Series [6] has the same test system. Briefly: Survival study in young dTG rats. It is filed as in vivo, rat.
In series [7] the test system is ACTH-stimulated aldosterone, cortisol and precursors. Briefly: Human ACTH (cortisol) stimulation test, multiple-dose phase. It is filed as in vivo.
Series [8] deals with healthy male volunteers. Briefly: Human safety and tolerability. It is filed as in vivo. The following applies: single or multiple doses.
The subject of series [9] is healthy male volunteers. Briefly: Human pharmacodynamics, multiple-dose phase.
Setting [10] is: dTG rats, LCI699 3–100 mg/kg/day, eplerenone 30 mg/kg/day.
The mark [11] stands for this setting: eplerenone 100 mg once daily, ANCOVA mean.

Molecules are shown by their SMILES. Marks after values point to notes of the source that are not given here.

For the compound `N#Cc1ccc([C@H]2CCCc3cncn32)cc1` [FAD286A, reference compound], the “selectivity factor by exposure, aldosterone synthase over 11β-hydroxylase” value in [1] is […]. Besides, the IC50 with human CYP11B2 (recombinant hamster fibroblasts expressing human CYP11B1 and CYP11B2, read-out: IC50, inhibition of aldosterone synthesis) is […]. The “selectivity factor, inhibition of aldosterone vs cortisol synthesis” value in the series on human CYP11B2 (recombinant hamster fibroblasts) is listed as […]. Besides, in [2], the EC50 is 136 nM. Besides, in series [3] (1 mg/kg oral dose), the oral bioavailability is […]. Also, the half-life in series [3] was […].
Turning to `CCOC(=O)[C@H](CCc1ccccc1)N[C@@H](C)C(=O)N1CCC[C@H]1C(=O)O` [enalapril, reference compound], the “prolongation of median survival by pre-treatment” value in series [4] is on record as “approximately 4 months”.
On to `COC(=O)[C@@H]1CC2=CC(=O)CC[C@]2(C)[C@@]23O[C@@H]2C[C@@]2(C)[C@@H](CC[C@@]24CCC(=O)O4)[C@H]13` [eplerenone, reference compound], for which, in series [5] (30 mg/kg), the “effect on BUN levels” value was “no significant effect”, the “effect on LV fractional shortening” value is on record as “no significant effect”, the “effect on LV isovolumic relaxation time to RR (IVRT/RR) ratio” value was “no significant effect” and the “effect on urine output” value is on record as “no significant effect”. Also, the “effect on plasma aldosterone concentration” value in [5] (dTG rats treated 3 to 7 weeks of age, LCI699 3–100 mg/kg/day in drinking water, eplerenone 30 mg/kg/day in chow) is “had no effect”. Besides, the “effect on myocardial cell size” value in series [5] (dTG rats, LCI699 3–100 mg/kg/day, eplerenone 30 mg/kg) is recorded as “reduced but did not normalize”. Besides, in series [5] (setting [10]), the “effect on mean arterial pressure” value is recorded as “neither LCI699 nor eplerenone normalized arterial pressure”, the “effect on serum potassium” value was “had no effect”, the “effect on urinary albumin excretion” value is given as “slightly increased” and the “effect on urinary aldosterone excretion” value is on record as “significantly increased”. Moreover, the “effect on LV weight” value in series [5] (dTG rats, LCI699 3–100 mg/kg/day, eplerenone 30 mg/kg, data not shown) is listed as “had no effect”. The “maximum effective dose for prolongation of survival” value in series [6] (young dTG rats) stood at 30 mg/kg. Moreover, the “doses at which survival was significantly prolonged” value in [6] (young dTG rats without established cardiorenal disease, P < 0.01) is reported as greater than 10 mg/kg/day. The “maximum median survival time” value in series [6] (young dTG rats, dose–median survival curves) is reported as 8.4 weeks. In addition, the “effect on ACTH-stimulated 11-DOC levels” value in series [7] (LCI699 0.5 mg, eplerenone 100 mg) is “no significant effect”. For the same compound, the “effect on cortisol precursors (ACTH-stimulated)” value in series [7] (eplerenone 100 mg and lower doses of LCI699 (0.5, 1 mg), Day 6 or Day 13) is “no significant effect”. In [7] (eplerenone 100 mg, Day 6), the “increase in ACTH-stimulated peak aldosterone levels” value came out at 63% and the “increase in pre-ACTH aldosterone levels 2 h post-dose vs Day −2” value is recorded as 29%. Besides, the “changes in supine systolic or diastolic blood pressure or heart rate compared with placebo” value in the series with healthy male volunteers [8] was “no consistent changes”. Moreover, in the series on healthy male volunteers [9] (setting [11]), the “Plasma potassium, Δ Day2 vs baseline (Day −1)” value is recorded as “+0.08 mEq/L”; the “Plasma potassium, Δ Day7 vs baseline (Day −1)” value is given as −0.02 mEq/L; the “Plasma potassium, Δ Day14 vs Day 7” value is recorded as −0.09 mEq/L; the “Plasma sodium, Δ Day2 vs baseline (Day −1)” value is −0.64 mEq/L. In addition, in the series on healthy male volunteers [9] (setting [11]), the “Plasma sodium, Δ Day7 vs baseline (Day −1)” value is “+0.31 mEq/L”; the “Plasma sodium, Δ Day14 vs Day 7” value is reported as −0.07 mEq/L; the “Urinary potassium, Δ Day 1 vs baseline (Day −1)” value is given as “+5.2 mEq/24 h”; the “Urinary potassium, Δ Day 7 vs baseline (Day −1)” value is “+6.4 mEq/24 h”. For the same compound, in the series with healthy male volunteers [9] (setting [11]), the “Urinary potassium, Δ Day 14 vs Day 7” value was “+3.7 mEq/24 h”; the “Urinary sodium, Δ Day 1 vs baseline (Day −1)” value is listed as “+53.8‡ mEq/24 h”; the “Urinary sodium, Δ Day 7 vs baseline (Day −1)” value was “+16.2 mEq/24 h”; the “Urinary sodium, Δ Day 14 vs Day 7” value is −24.0 mEq/24 h. Further, in the series on healthy male volunteers [9] (eplerenone 100 mg, Day 1), the “effect on plasma aldosterone concentration” value is “had no effect” and the “increase in 24 hour urinary aldosterone” value stood at 34%. In the series with healthy male volunteers [9] (eplerenone 100 mg, Day 7), the “increase in 24 h urinary aldosterone levels” value came to 118%, the “increase in PRA from baseline” value amounted to 92% and the “increase in plasma aldosterone” value amounted to 46%. Besides, in the series on healthy male volunteers [9] (eplerenone 100 mg, Day 14), the “increase in 24 h urinary aldosterone levels” value is 161%, the “increase in PRA” value is 130% and the “increase in plasma aldosterone” value came out at 63%.
